Non-standard residues stand in square brackets, D forms with d. No end group written: not given here. *: point of attachment. Biotin = O=C1N[C@H]2[C@H](CS[C@H]2CCCCC(=O)*)N1; Cit = NC(=O)NCCC[C@H](N)C(=O)O
Tested on: IgG ACPAs
Experiment: ACPA ELISA with anti-human IgG secondary antibody
Type: binding
Conditions: for IgG ACPA positive response (strong/moderate): Example 7, FIGS. 20-27
Procedure: The synthetic citrullnated peptides set forth in Example 6, which were designed from synovial proteins, were synthesized and evaluated for their ability to diagnose and/or prognose RA. […] The peptides were then tested for IgG ACPA dose-response in samples of synovial fluid taken from both healthy patients and patients with RA.

Substance	IgG ACPA positive response (strong/moderate)	sensitivity for autoantibodies of the IgG class (in words)	EC50 of the INOVA CCP IgG assay relative to EC50 of the peptide assay (FIG. 4, IgG ACPAs)
Apo a-4: synthetic citrullinated peptide derived from Apolipoprotein a, Table 8 (Biotin-HWHQ[Cit]TTEYYPNGGLT[Cit]GGLTRNYS[Cit]N-NH2; SMILES CC(C)C[C@H](NC(=O)CNC(=O)CNC(=O)[C@H](CC(N)=O)NC(=O)[C@@H]1CCCN1C(=O)[C@H](Cc1ccc(O)cc1)NC(=O)[C@H](Cc1ccc(O)cc1)NC(=O)[C@H](CCC(=O)O)NC(=O)[C@@H](NC(=O)[C@@H](NC(=O)[C@H](CCCNC(N)=O)NC(=O)[C@H](CCC(N)=O)NC(=O)[C@H](Cc1c[nH]cn1)NC(=O)[C@H](Cc1c[nH]c2ccccc12)NC(=O)[C@H](Cc1c[nH]cn1)NC(=O)CCCC[C@@H]1SC[C@@H]2NC(=O)N[C@@H]21)[C@@H](C)O)[C@@H](C)O)C(=O)N[C@H](C(=O)N[C@@H](CCCNC(N)=O)C(=O)NCC(=O)NCC(=O)N[C@@H](CC(C)C)C(=O)N[C@H](C(=O)N[C@@H](CCCNC(=N)N)C(=O)N[C@@H](CC(N)=O)C(=O)N[C@@H](Cc1ccc(O)cc1)C(=O)N[C@@H](CO)C(=O)N[C@@H](CCCNC(N)=O)C(=O)N[C@@H](CC(N)=O)C(N)=O)[C@@H](C)O)[C@@H](C)O)	strong		
Apo a-6: synthetic citrullinated peptide derived from Apolipoprotein a, Table 8 (Biotin-HWHR[Cit]IPLYYPNAGLT[Cit]AGLTRNYS[Cit]N-NH2; SMILES CC[C@H](C)[C@H](NC(=O)[C@H](CCCNC(N)=O)NC(=O)[C@H](CCCNC(=N)N)NC(=O)[C@H](Cc1c[nH]cn1)NC(=O)[C@H](Cc1c[nH]c2ccccc12)NC(=O)[C@H](Cc1c[nH]cn1)NC(=O)CCCC[C@@H]1SC[C@@H]2NC(=O)N[C@@H]21)C(=O)N1CCC[C@H]1C(=O)N[C@@H](CC(C)C)C(=O)N[C@@H](Cc1ccc(O)cc1)C(=O)N[C@@H](Cc1ccc(O)cc1)C(=O)N1CCC[C@H]1C(=O)N[C@@H](CC(N)=O)C(=O)N[C@@H](C)C(=O)NCC(=O)N[C@@H](CC(C)C)C(=O)N[C@H](C(=O)N[C@@H](CCCNC(N)=O)C(=O)N[C@@H](C)C(=O)NCC(=O)N[C@@H](CC(C)C)C(=O)N[C@H](C(=O)N[C@@H](CCCNC(=N)N)C(=O)N[C@@H](CC(N)=O)C(=O)N[C@@H](Cc1ccc(O)cc1)C(=O)N[C@@H](CO)C(=O)N[C@@H](CCCNC(N)=O)C(=O)N[C@@H](CC(N)=O)C(N)=O)[C@@H](C)O)[C@@H](C)O)	strong		
Biotin-GGGP[Cit]VVE[Cit]HQSAGGGTK[Cit]GHAKSRPV[Cit]GIHT [[Arg^25]Cit-α32]		particularly high sensitivity	143 fold
Bip-2: synthetic citrullinated peptide derived from BiP, Table 8 (Biotin-DVRKDN[Cit]AVQKLR[Cit]EVEKAK[Cit]ALSSQHQ-NH2; SMILES CC(C)C[C@H](NC(=O)[C@H](C)NC(=O)[C@H](CCCNC(N)=O)NC(=O)[C@H](CCCCN)NC(=O)[C@H](C)NC(=O)[C@H](CCCCN)NC(=O)[C@H](CCC(=O)O)NC(=O)[C@@H](NC(=O)[C@H](CCC(=O)O)NC(=O)[C@H](CCCNC(N)=O)NC(=O)[C@H](CCCNC(=N)N)NC(=O)[C@H](CC(C)C)NC(=O)[C@H](CCCCN)NC(=O)[C@H](CCC(N)=O)NC(=O)[C@@H](NC(=O)[C@H](C)NC(=O)[C@H](CCCNC(N)=O)NC(=O)[C@H](CC(N)=O)NC(=O)[C@H](CC(=O)O)NC(=O)[C@H](CCCCN)NC(=O)[C@H](CCCNC(=N)N)NC(=O)[C@@H](NC(=O)[C@H](CC(=O)O)NC(=O)CCCC[C@@H]1SC[C@@H]2NC(=O)N[C@@H]21)C(C)C)C(C)C)C(C)C)C(=O)N[C@@H](CO)C(=O)N[C@@H](CO)C(=O)N[C@@H](CCC(N)=O)C(=O)N[C@@H](Cc1c[nH]cn1)C(=O)N[C@@H](CCC(N)=O)C(N)=O)	moderate		
Bip-3: synthetic citrullinated peptide derived from BiP, Table 8 (Biotin-GEDFSETLT[Cit]DLF[Cit]STMKPIVLVGGST[Cit]R-NH2; SMILES CC[C@H](C)[C@H](NC(=O)[C@@H]1CCCN1C(=O)[C@H](CCCCN)NC(=O)[C@H](CCSC)NC(=O)[C@@H](NC(=O)[C@H](CO)NC(=O)[C@H](CCCNC(N)=O)NC(=O)[C@H](Cc1ccccc1)NC(=O)[C@H](CC(C)C)NC(=O)[C@H](CC(=O)O)NC(=O)[C@H](CCCNC(N)=O)NC(=O)[C@@H](NC(=O)[C@H](CC(C)C)NC(=O)[C@@H](NC(=O)[C@H](CCC(=O)O)NC(=O)[C@H](CO)NC(=O)[C@H](Cc1ccccc1)NC(=O)[C@H](CC(=O)O)NC(=O)[C@H](CCC(=O)O)NC(=O)CNC(=O)CCCC[C@@H]1SC[C@@H]2NC(=O)N[C@@H]21)[C@@H](C)O)[C@@H](C)O)[C@@H](C)O)C(=O)N[C@H](C(=O)N[C@@H](CC(C)C)C(=O)N[C@H](C(=O)NCC(=O)NCC(=O)N[C@@H](CO)C(=O)N[C@H](C(=O)N[C@@H](CCCNC(N)=O)C(=O)N[C@@H](CCCNC(=N)N)C(N)=O)[C@@H](C)O)C(C)C)C(C)C)	moderate		
FBNT-3: synthetic citrullinated peptide derived from fibronectin, Table 8 (Biotin-GVLV[Cit]WTPPRLVRWTPP[Cit]AQG-NH2; SMILES CC(C)C[C@H](NC(=O)[C@H](CCCNC(=N)N)NC(=O)[C@@H]1CCCN1C(=O)[C@@H]1CCCN1C(=O)[C@@H](NC(=O)[C@H](Cc1c[nH]c2ccccc12)NC(=O)[C@H](CCCNC(N)=O)NC(=O)[C@@H](NC(=O)[C@H](CC(C)C)NC(=O)[C@@H](NC(=O)CNC(=O)CCCC[C@@H]1SC[C@@H]2NC(=O)N[C@@H]21)C(C)C)C(C)C)[C@@H](C)O)C(=O)N[C@H](C(=O)N[C@@H](CCCNC(=N)N)C(=O)N[C@@H](Cc1c[nH]c2ccccc12)C(=O)N[C@H](C(=O)N1CCC[C@H]1C(=O)N1CCC[C@H]1C(=O)N[C@@H](CCCNC(N)=O)C(=O)N[C@@H](C)C(=O)N[C@@H](CCC(N)=O)C(=O)NCC(N)=O)[C@@H](C)O)C(C)C)	moderate		
FBNT-5: synthetic citrullinated peptide derived from fibronectin, Table 8 (Biotin-RGVLTVSWE[Cit]STTPDITGY[Cit]ITTTPTNR-NH2; SMILES CC[C@H](C)[C@H](NC(=O)[C@H](CC(=O)O)NC(=O)[C@@H]1CCCN1C(=O)[C@@H](NC(=O)[C@@H](NC(=O)[C@H](CO)NC(=O)[C@H](CCCNC(N)=O)NC(=O)[C@H](CCC(=O)O)NC(=O)[C@H](Cc1c[nH]c2ccccc12)NC(=O)[C@H](CO)NC(=O)[C@@H](NC(=O)[C@@H](NC(=O)[C@H](CC(C)C)NC(=O)[C@@H](NC(=O)CNC(=O)[C@H](CCCNC(=N)N)NC(=O)CCCC[C@@H]1SC[C@@H]2NC(=O)N[C@@H]21)C(C)C)[C@@H](C)O)C(C)C)[C@@H](C)O)[C@@H](C)O)C(=O)N[C@H](C(=O)NCC(=O)N[C@@H](Cc1ccc(O)cc1)C(=O)N[C@@H](CCCNC(N)=O)C(=O)N[C@H](C(=O)N[C@H](C(=O)N[C@H](C(=O)N[C@H](C(=O)N1CCC[C@H]1C(=O)N[C@H](C(=O)N[C@@H](CC(N)=O)C(=O)N[C@@H](CCCNC(=N)N)C(N)=O)[C@@H](C)O)[C@@H](C)O)[C@@H](C)O)[C@@H](C)O)[C@@H](C)CC)[C@@H](C)O)	moderate		
FBNT-6: synthetic citrullinated peptide derived from fibronectin, Table 8 (Biotin-RIAP[Cit]ATITGPRATITGY[Cit]YRI[Cit]HHPEHG-NH2; SMILES CC[C@H](C)[C@H](NC(=O)[C@H](CCCNC(=N)N)NC(=O)CCCC[C@@H]1SC[C@@H]2NC(=O)N[C@@H]21)C(=O)N[C@@H](C)C(=O)N1CCC[C@H]1C(=O)N[C@@H](CCCNC(N)=O)C(=O)N[C@@H](C)C(=O)N[C@H](C(=O)N[C@H](C(=O)N[C@H](C(=O)NCC(=O)N1CCC[C@H]1C(=O)N[C@@H](CCCNC(=N)N)C(=O)N[C@@H](C)C(=O)N[C@H](C(=O)N[C@H](C(=O)N[C@H](C(=O)NCC(=O)N[C@@H](Cc1ccc(O)cc1)C(=O)N[C@@H](CCCNC(N)=O)C(=O)N[C@@H](Cc1ccc(O)cc1)C(=O)N[C@@H](CCCNC(=N)N)C(=O)N[C@H](C(=O)N[C@@H](CCCNC(N)=O)C(=O)N[C@@H](Cc1c[nH]cn1)C(=O)N[C@@H](Cc1c[nH]cn1)C(=O)N1CCC[C@H]1C(=O)N[C@@H](CCC(=O)O)C(=O)N[C@@H](Cc1c[nH]cn1)C(=O)NCC(N)=O)[C@@H](C)CC)[C@@H](C)O)[C@@H](C)CC)[C@@H](C)O)[C@@H](C)O)[C@@H](C)CC)[C@@H](C)O)	strong		
FBNT-7: synthetic citrullinated peptide derived from fibronectin, Table 8 (Biotin-GP[Cit]EDRVPHSPRED[Cit]VPHS[Cit]NSITLTNG-NH2; SMILES CC[C@H](C)[C@H](NC(=O)[C@H](CO)NC(=O)[C@H](CC(N)=O)NC(=O)[C@H](CCCNC(N)=O)NC(=O)[C@H](CO)NC(=O)[C@H](Cc1c[nH]cn1)NC(=O)[C@@H]1CCCN1C(=O)[C@@H](NC(=O)[C@H](CCCNC(N)=O)NC(=O)[C@H](CC(=O)O)NC(=O)[C@H](CCC(=O)O)NC(=O)[C@H](CCCNC(=N)N)NC(=O)[C@@H]1CCCN1C(=O)[C@H](CO)NC(=O)[C@H](Cc1c[nH]cn1)NC(=O)[C@@H]1CCCN1C(=O)[C@@H](NC(=O)[C@H](CCCNC(=N)N)NC(=O)[C@H](CC(=O)O)NC(=O)[C@H](CCC(=O)O)NC(=O)[C@H](CCCNC(N)=O)NC(=O)[C@@H]1CCCN1C(=O)CNC(=O)CCCC[C@@H]1SC[C@@H]2NC(=O)N[C@@H]21)C(C)C)C(C)C)C(=O)N[C@H](C(=O)N[C@@H](CC(C)C)C(=O)N[C@H](C(=O)N[C@@H](CC(N)=O)C(=O)NCC(N)=O)[C@@H](C)O)[C@@H](C)O)	moderate		
